# Values joined by “and” are separate entries in the source; they are usually repeats but may differ in a detail not shown here. Equal values may be shown once.
# Columns and labels:
# [1] = Pharmacokinetic analysis of AMXT 1501 salt forms, single oral tablet dose; format: in vivo, beagle dogs; settings: for Cmax / Tmax / half-life / AUC(0-t): beagle, dog, plasma, po
# From the text: Following dose administration all the animals had serial blood collections. Table 18 provides pharmacokinetic data obtained using the various salt forms of AMXT 1501 following single PO dosing to dogs. In Table 18, Group 1 received the free base form of AMXT 1501, Group 2 received the dicholate salt of AMXT 1501, Group 3 received the phosphate salt form of AMXT 1501, and Group 4 received the dicaprate salt form of AMXT 1501. […] In Table 18, SD refers to standard deviation and CV % refers to coefficient of variability.
# [2] = 5 day repeat oral dosing PK of AMXT 1501 dicaprate; format: in vivo, beagle dogs
# Protocol: The pharmacokinetic (PK) profiles after dosing on Days 1 and 5 were evaluated using standard noncompartmental methods. The following experimental design was used. Beagle dogs, 1 or 2 males and 1 or 2 females for a total of 3 dogs per group, were randomly assigned to the four treatment groups as outlined in Table 19. AMXT 1501 dicaprate salt was administered in tablet form once daily for five days. […] Plasma samples were analyzed for AMXT 1501 concentration via a liquid chromatography/mass spectrometry (LC/MS-MS) procedure and the resulting concentration versus time data were used to estimate individual animal PK parameters using noncompartmental analysis (NCA).
# [3] = single PO dose 16.0 mg/kg (2 x 80 mg tablets), plasma AMXT 1501, 16 mg/kg
# [4] = single PO dose 16.0 mg/kg, plasma AMXT 1501, 16 mg/kg
# [5] = single PO dose 16.0 mg/kg, t=24 hours, plasma AMXT 1501, 16 mg/kg
# [6] = 8 mg/kg PO once daily, Day 5, individual animals
# [7] = 8 mg/kg PO, Day 1, individual animals
# [8] = 16 mg/kg PO once daily, Day 5, individual animals
# [9] = 16 mg/kg PO, Day 1, individual animals
# [10] = 32 mg/kg PO once daily, Day 5, individual animals
# [11] = 32 mg/kg PO, Day 1, individual animals
smiles,measurement,setting,value
CCCCCCCCCCCCCCCC(=O)NCCCC[C@@H](N)C(=O)NCCCNCCCCNCCCN [AMXT 1501 dicaprate],Cmax,"[1]; 16 mg/kg, single PO dose 16.0 mg/kg (2 x 80 mg tablets), plasma AMXT 1501, read-out: Cmax Mean",276 ng/mL
same,Cmax,"[1]; 16 mg/kg, single PO dose 16.0 mg/kg (2 x 80 mg tablets), plasma AMXT 1501, read-out: Cmax Median",278 ng/mL
same,Tmax,"[1]; 16 mg/kg, single PO dose 16.0 mg/kg (2 x 80 mg tablets), plasma AMXT 1501, read-out: Tmax Mean",6 h
same,Tmax,"[1]; 16 mg/kg, single PO dose 16.0 mg/kg (2 x 80 mg tablets), plasma AMXT 1501, read-out: Tmax Median",6 h
same,half-life,"[1]; 16 mg/kg, single PO dose 16.0 mg/kg, plasma AMXT 1501, read-out: t1/2 Mean (converted)",14 h
same,half-life,"[1]; 16 mg/kg, single PO dose 16.0 mg/kg, plasma AMXT 1501, read-out: t1/2 Median (converted)",13.4 h
same,AUC(0-t),"[1]; 16 mg/kg, single PO dose 16.0 mg/kg, t=24 hours, plasma AMXT 1501, read-out: AUC0-t Mean",6580 ng·h/mL
same,AUC(0-t),"[1]; 16 mg/kg, single PO dose 16.0 mg/kg, t=24 hours, plasma AMXT 1501, read-out: AUC0-t Median",6370 ng·h/mL
same,Cmax Max.,[1]; [3],349 ng/mL
same,Cmax Min.,[1]; [3],201 ng/mL
same,t1/2 Max.,[1]; [4],16.2 h
same,t1/2 Min.,[1]; [4],12.4 h
same,AUC0-t Max.,[1]; [5],8640 ng·h/mL
same,AUC0-t Min.,[1]; [5],4710 ng·h/mL
same,inter-animal consistency of plasma AMXT 1501 levels,"[1]; single oral delivery, FIGS. 5A-5D",much more consistent inter-animal blood levels
same,AUC(0-t),[2]; [6],5620 ng·h/mL and 3100 ng·h/mL
same,Cmax,[2]; [6],360 ng/mL and 254 ng/mL
same,t1/2,[2]; [6],7.82 h
same,AUC(0-t),[2]; [7],2050 ng·h/mL
same,Cmax,[2]; [7],168 ng/mL
same,AUC(0-t),[2]; [8],11000 ng·h/mL
same,Cmax,[2]; [8],454 ng/mL and 714 ng/mL
same,Tmax,[2]; [8],12.0 h
same,AUC(0-t),[2]; [9],3190 ng·h/mL and 3300 ng·h/mL
same,Cmax,[2]; [9],249 ng/mL
same,t1/2,[2]; [9],36.2 h and 10.3 h
same,AUC(0-t),[2]; [10],11000 ng·h/mL and 11100 ng·h/mL
same,Cmax,[2]; [10],662 ng/mL and 708 ng/mL
same,AUC(0-t),[2]; [11],5830 ng·h/mL and 4900 ng·h/mL
same,Cmax,[2]; [11],446 ng/mL and 333 ng/mL
same,t1/2,[2]; [11],27.1 h and 10.0 h
same,half-life,"[2]; both sexes, beagle, dog, plasma, oral, Day 1, animals where it could be estimated, read-out: mean Day 1 t1/2 values, range across groups",7.99 to 23.2 h
same,half-life at 5 days,"[2]; both sexes, beagle, dog, plasma, oral, Day 5, animals where it could be estimated, read-out: mean Day 5 t1/2 values, range across groups",8.69 to 20.8 h
same,AUC(0-t),"[2]; both sexes, beagle, dog, plasma, po, 8 mg/kg, 8 mg/kg PO once daily, Day 5, group mean, read-out: AUC0-t Mean",4750 ng·h/mL
same,Cmax,"[2]; both sexes, beagle, dog, plasma, po, 8 mg/kg, 8 mg/kg PO once daily, Day 5, group mean, read-out: Cmax Mean",340 ng/mL
same,Tmax,"[2]; both sexes, beagle, dog, plasma, po, 8 mg/kg, 8 mg/kg PO once daily, Day 5, group mean, read-out: Tmax Mean",5.33 h
same,half-life,"[2]; both sexes, beagle, dog, plasma, po, 8 mg/kg, 8 mg/kg PO once daily, Day 5, group mean, read-out: t1/2 Mean (converted)",8.69 h
same,AUC(0-t),"[2]; both sexes, beagle, dog, plasma, po, 8 mg/kg, 8 mg/kg PO once daily, Day 5, individual animals, read-out: AUC0-t",5530 ng·h/mL
same,Cmax,"[2]; both sexes, beagle, dog, plasma, po, 8 mg/kg, 8 mg/kg PO once daily, Day 5, individual animals, read-out: Cmax",405 ng/mL
same,Tmax,"[2]; both sexes, beagle, dog, plasma, po, 8 mg/kg, 8 mg/kg PO once daily, Day 5, individual animals, read-out: Tmax",8 h
same,half-life,"[2]; both sexes, beagle, dog, plasma, po, 8 mg/kg, 8 mg/kg PO once daily, Day 5, individual animals, read-out: t1/2 (converted)",9.55 h
same,AUC(0-t),"[2]; both sexes, beagle, dog, plasma, po, 8 mg/kg, 8 mg/kg PO, Day 1, group mean, read-out: AUC0-t Mean",2030 ng·h/mL
same,Cmax,"[2]; both sexes, beagle, dog, plasma, po, 8 mg/kg, 8 mg/kg PO, Day 1, group mean, read-out: Cmax Mean",154 ng/mL
same,Tmax,"[2]; both sexes, beagle, dog, plasma, po, 8 mg/kg, 8 mg/kg PO, Day 1, group mean, read-out: Tmax Mean",6 h
same,half-life,"[2]; both sexes, beagle, dog, plasma, po, 8 mg/kg, 8 mg/kg PO, Day 1, group mean, read-out: t1/2 Mean (converted)",9.3 h
same,AUC(0-t),"[2]; both sexes, beagle, dog, plasma, po, 8 mg/kg, 8 mg/kg PO, Day 1, individual animals, read-out: AUC0-t",2010 ng·h/mL
same,Cmax,"[2]; both sexes, beagle, dog, plasma, po, 8 mg/kg, 8 mg/kg PO, Day 1, individual animals, read-out: Cmax",139 ng/mL
same,Tmax,"[2]; both sexes, beagle, dog, plasma, po, 8 mg/kg, 8 mg/kg PO, Day 1, individual animals, read-out: Tmax",8 h
same,half-life,"[2]; both sexes, beagle, dog, plasma, po, 8 mg/kg, 8 mg/kg PO, Day 1, individual animals, read-out: t1/2 (converted)",9.3 h
same,AUC(0-t),"[2]; both sexes, beagle, dog, plasma, po, 16 mg/kg, 16 mg/kg PO once daily, Day 5, group mean, read-out: AUC0-t Mean",8890 ng·h/mL
same,Cmax,"[2]; both sexes, beagle, dog, plasma, po, 16 mg/kg, 16 mg/kg PO once daily, Day 5, group mean, read-out: Cmax Mean",564 ng/mL
same,Tmax,"[2]; both sexes, beagle, dog, plasma, po, 16 mg/kg, 16 mg/kg PO once daily, Day 5, group mean, read-out: Tmax Mean",8 h
same,half-life,"[2]; both sexes, beagle, dog, plasma, po, 16 mg/kg, 16 mg/kg PO once daily, Day 5, group mean, read-out: t1/2 Mean (converted)",11.7 h
same,AUC(0-t),"[2]; both sexes, beagle, dog, plasma, po, 16 mg/kg, 16 mg/kg PO once daily, Day 5, individual animals, read-out: AUC0-t",9410 ng·h/mL
same,Cmax,"[2]; both sexes, beagle, dog, plasma, po, 16 mg/kg, 16 mg/kg PO once daily, Day 5, individual animals, read-out: Cmax",523 ng/mL
same,half-life,"[2]; both sexes, beagle, dog, plasma, po, 16 mg/kg, 16 mg/kg PO once daily, Day 5, individual animals, read-out: t1/2 (converted)",11.7 h
same,AUC(0-t),"[2]; both sexes, beagle, dog, plasma, po, 16 mg/kg, 16 mg/kg PO, Day 1, group mean, read-out: AUC0-t Mean",3450 ng·h/mL
same,Cmax,"[2]; both sexes, beagle, dog, plasma, po, 16 mg/kg, 16 mg/kg PO, Day 1, group mean, read-out: Cmax Mean",238 ng/mL
same,Tmax,"[2]; both sexes, beagle, dog, plasma, po, 16 mg/kg, 16 mg/kg PO, Day 1, group mean, read-out: Tmax Mean",5.33 h
same,half-life,"[2]; both sexes, beagle, dog, plasma, po, 16 mg/kg, 16 mg/kg PO, Day 1, group mean, read-out: t1/2 Mean (converted)",23.2 h
same,AUC(0-t),"[2]; both sexes, beagle, dog, plasma, po, 16 mg/kg, 16 mg/kg PO, Day 1, individual animals, read-out: AUC0-t",3870 ng·h/mL
same,Cmax,"[2]; both sexes, beagle, dog, plasma, po, 16 mg/kg, 16 mg/kg PO, Day 1, individual animals, read-out: Cmax",202 ng/mL
same,Tmax,"[2]; both sexes, beagle, dog, plasma, po, 16 mg/kg, 16 mg/kg PO, Day 1, individual animals, read-out: Tmax",8 h
same,AUC(0-t),"[2]; both sexes, beagle, dog, plasma, po, 32 mg/kg, 32 mg/kg PO once daily, Day 5, group mean, read-out: AUC0-t Mean",13000 ng·h/mL
same,Cmax,"[2]; both sexes, beagle, dog, plasma, po, 32 mg/kg, 32 mg/kg PO once daily, Day 5, group mean, read-out: Cmax Mean",837 ng/mL
same,Tmax,"[2]; both sexes, beagle, dog, plasma, po, 32 mg/kg, 32 mg/kg PO once daily, Day 5, group mean, read-out: Tmax Mean",6.67 h
same,half-life,"[2]; both sexes, beagle, dog, plasma, po, 32 mg/kg, 32 mg/kg PO once daily, Day 5, group mean, read-out: t1/2 Mean (converted)",10.7 h
same,AUC(0-t),"[2]; both sexes, beagle, dog, plasma, po, 32 mg/kg, 32 mg/kg PO once daily, Day 5, individual animals, read-out: AUC0-t",16800 ng·h/mL
same,Cmax,"[2]; both sexes, beagle, dog, plasma, po, 32 mg/kg, 32 mg/kg PO once daily, Day 5, individual animals, read-out: Cmax",1140 ng/mL
same,Tmax,"[2]; both sexes, beagle, dog, plasma, po, 32 mg/kg, 32 mg/kg PO once daily, Day 5, individual animals, read-out: Tmax",4 h
same,half-life,"[2]; both sexes, beagle, dog, plasma, po, 32 mg/kg, 32 mg/kg PO once daily, Day 5, individual animals, read-out: t1/2 (converted)",10.7 h
same,AUC(0-t),"[2]; both sexes, beagle, dog, plasma, po, 32 mg/kg, 32 mg/kg PO, Day 1, group mean, read-out: AUC0-t Mean",5660 ng·h/mL
same,Cmax,"[2]; both sexes, beagle, dog, plasma, po, 32 mg/kg, 32 mg/kg PO, Day 1, group mean, read-out: Cmax Mean",447 ng/mL
same,Tmax,"[2]; both sexes, beagle, dog, plasma, po, 32 mg/kg, 32 mg/kg PO, Day 1, group mean, read-out: Tmax Mean",5.33 h
same,half-life,"[2]; both sexes, beagle, dog, plasma, po, 32 mg/kg, 32 mg/kg PO, Day 1, group mean, read-out: t1/2 Mean (converted)",18.6 h
same,AUC(0-t),"[2]; both sexes, beagle, dog, plasma, po, 32 mg/kg, 32 mg/kg PO, Day 1, individual animals, read-out: AUC0-t",6250 ng·h/mL
same,Cmax,"[2]; both sexes, beagle, dog, plasma, po, 32 mg/kg, 32 mg/kg PO, Day 1, individual animals, read-out: Cmax",563 ng/mL
same,Tmax,"[2]; both sexes, beagle, dog, plasma, po, 32 mg/kg, 32 mg/kg PO, Day 1, individual animals, read-out: Tmax",8 h
same,Tmax,"[2]; both sexes, beagle, dog, plasma, po, 32 mg/kg, single or repeat once daily PO 8, 16, or 32 mg/kg, postdose, read-out: Tmax observed",4 to 12 h

# Reference: patent publication US12364709B2, “Bioavailable poly amines” (AMINEX THERAPEUTICS, INC., priority 2016, dated 2025)
